Test results reported in paper PMC6887759, “The C-Type Lysozyme from the upper Gastrointestinal Tract of Opisthocomus hoatzin, the Stinkbird” (International Journal of Molecular Sciences, 2019).

How the values were obtained:
[1] = molecular target: T1, OhLys-kexB (E35A variant used for the ligand complexes) (Opisthocomus hoazin, UniProt Q91159, INS20KR/E54A); test: X-ray crystallography, co-crystallisation; type: biochemical; conditions: added as chitohexaose; hydrolysed by residual activity, so only sugars in -1 to -3 (weak -4) seen; intact hexamer not observed; mature numbering
T1 construct: gene LYZ; mature enzyme, 126 residues in wild type, secreted from Aspergillus oryzae; Lys-Arg inserted between Glu1 and Ile2 (uncleaved kexB site), N-terminus EKRIIPRCELV; monomer in asymmetric unit
T1 sequence (Q91159 other isoform, or with tags, fused parts or gaps INS20KR/E54A): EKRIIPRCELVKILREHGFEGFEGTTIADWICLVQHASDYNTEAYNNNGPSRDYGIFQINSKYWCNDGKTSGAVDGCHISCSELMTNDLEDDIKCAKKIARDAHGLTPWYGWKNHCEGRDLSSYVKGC

[2] = molecular target: T1, OhLys-kexB (E35A variant used for the ligand complexes); test: X-ray crystallography, co-crystallisation; type: binding; conditions: density essentially identical to the chitohexaose co-crystal, subsites -1 to -3 (poorly ordered -4); not fully refined; mature numbering

Structure (SMILES)	X-ray crystallography, co-crystallisation [1]	X-ray crystallography, co-crystallisation [2]
CC(=O)N[C@H]1[C@H](O[C@H]2[C@H](O)[C@@H](NC(C)=O)[C@H](O[C@H]3[C@H](O)[C@@H](NC(C)=O)C(O)O[C@@H]3CO)O[C@@H]2CO)O[C@H](CO)[C@@H](O[C@@H]2O[C@H](CO)[C@@H](O[C@@H]3O[C@H](CO)[C@@H](O[C@@H]4O[C@H](CO)[C@@H](O)[C@H](O)[C@H]4NC(C)=O)[C@H](O)[C@H]3NC(C)=O)[C@H](O)[C@H]2NC(C)=O)[C@@H]1O (some centres unmarked) [chitohexaose]	hydrolyse; at the high protein concentrations of a prolonged crystallization, the chitohexaose substrate	–
CC(=O)N[C@H]1[C@H](O[C@H]2[C@H](O)[C@@H](NC(C)=O)C(O)O[C@@H]2CO)O[C@H](CO)[C@@H](O[C@@H]2O[C@H](CO)[C@@H](O[C@@H]3O[C@H](CO)[C@@H](O)[C@H](O)[C@H]3NC(C)=O)[C@H](O)[C@H]2NC(C)=O)[C@@H]1O (some centres unmarked) [chitotetraose]	–	The density for the chitotetraose ligand is essentially identical to this
